Assay results from PubChem BioAssay (NCI).
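How tested: cells in 96-well plates exposed to compound for 48 hours at five concentrations. The concentration for full growth arrest is given as TGI.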

Tests used:
Assay in all cases: DTP human tumour cell line panel, 48 h
[1] = test system: SF-539 CNS
[2] = test system: M19-MEL melanoma
[3] = test system: IGROV1 ovarian
[4] = test system: KM12 colon
[5] = test system: HCT-15 colon
[6] = test system: OVCAR-5 ovarian
[7] = test system: SNB-75 CNS
[8] = test system: LXFL 529 NSCLC
[9] = test system: NCI-H23 lung
[10] = test system: COLO 205 colon
[11] = test system: KM20L2 colon
[12] = test system: HOP-92 NSCLC
[13] = test system: SW-620 colon
[14] = test system: MALME-3M melanoma
[15] = test system: NCI-H460 lung
[16] = test system: ACHN renal
[17] = test system: UO-31 renal
[18] = test system: K-562 leukemia
[19] = test system: HCT-116 colon
[20] = test system: 786-0 renal
[21] = test system: SN12C renal
[22] = test system: SK-MEL-2 melanoma
[23] = test system: HT29 colon
[24] = test system: A498 renal
[25] = test system: OVCAR-3 ovarian
[26] = test system: HOP-62 NSCLC
[27] = test system: SK-MEL-5 melanoma
[28] = test system: CAKI-1 renal
[29] = test system: NCI-H522 lung
[30] = test system: SK-MEL-28 melanoma
[31] = test system: MOLT-4 leukemia
[32] = test system: UACC-257 melanoma
[33] = test system: DMS 114 small cell lung
[34] = test system: SNB-19 CNS
[35] = test system: UACC-62 melanoma
[36] = test system: EKVX NSCLC
[37] = test system: HL-60(TB) leukemia
[38] = test system: SNB-78 CNS
[39] = test system: LOX IMVI melanoma
[40] = test system: RPMI-8226 leukemia
[41] = test system: TK-10 renal
[42] = test system: M14 melanoma
[43] = test system: U251 CNS
[44] = test system: A549 NSCLC
[45] = test system: HCC-2998 colon
[46] = test system: XF 498 CNS
[47] = test system: OVCAR-4 ovarian
[48] = test system: CCRF-CEM leukemia
[49] = test system: RXF 393 renal
[50] = test system: SF-268 CNS
[51] = test system: OVCAR-8 ovarian
[52] = test system: DMS 273 small cell lung
[53] = test system: SF-295 CNS
[54] = test system: DLD-1 colon
[55] = test system: NCI-H226 lung
[56] = test system: SK-OV-3 ovarian
[57] = test system: SR leukemia

Q: Which results are given for COC(=O)/C(=N\NC(=O)c1ccccc1O)C(C#N)c1ccccc1 (stereo unspecified)?
A: TGI [1]: > 43.3 µM; TGI [2]: > 50 µM; TGI [3]: > 50 µM; TGI [4]: > 50 µM; TGI [5]: > 50 µM; TGI [6]: > 50 µM; TGI [7]: > 50 µM; TGI [8]: > 50 µM; TGI [9]: > 40.7 µM; TGI [10]: > 50 µM; TGI [11]: > 50 µM; TGI [12]: > 50 µM; TGI [13]: > 50 µM; TGI [14]: > 50 µM; TGI [15]: > 50 µM; TGI [16]: > 50 µM; TGI [17]: 37.6 µM; TGI [18]: > 50 µM; TGI [19]: > 50 µM; TGI [20]: > 50 µM; TGI [21]: > 50 µM; TGI [22]: > 50 µM; TGI [23]: > 50 µM; TGI [24]: > 48.4 µM; TGI [25]: > 40.6 µM; TGI [26]: > 50 µM; TGI [27]: > 50 µM; TGI [28]: > 50 µM; TGI [29]: > 50 µM; TGI [30]: > 50 µM; TGI [31]: > 50 µM; TGI [32]: > 50 µM; TGI [33]: > 50 µM; TGI [34]: > 50 µM; TGI [35]: > 32.8 µM; TGI [36]: > 48.4 µM; TGI [37]: > 50 µM; TGI [38]: > 50 µM; TGI [39]: > 50 µM; TGI [40]: > 50 µM; TGI [41]: > 50 µM; TGI [42]: > 50 µM; TGI [43]: > 50 µM; TGI [44]: > 50 µM; TGI [45]: > 50 µM; TGI [46]: > 50 µM; TGI [47]: > 50 µM; TGI [48]: > 50 µM; TGI [49]: 34.1 µM; TGI [50]: > 50 µM; TGI [51]: > 50 µM; TGI [52]: > 50 µM; TGI [53]: > 50 µM; TGI [54]: > 50 µM; TGI [55]: 46.1 µM; TGI [56]: > 50 µM

Q: What does the source list for O=S1(=O)OCCOS(=O)(=O)C1(Br)Cc1ccccc1?
A: TGI [1]: > 100 µM; TGI [2]: > 100 µM; TGI [3]: > 100 µM; TGI [5]: > 100 µM; TGI [6]: > 100 µM; TGI [7]: > 100 µM; TGI [8]: > 100 µM; TGI [9]: > 100 µM; TGI [10]: > 100 µM; TGI [11]: > 100 µM; TGI [12]: > 100 µM; TGI [13]: > 100 µM; TGI [14]: > 100 µM; TGI [15]: > 100 µM; TGI [16]: > 100 µM; TGI [17]: > 100 µM; TGI [18]: > 100 µM; TGI [19]: > 100 µM; TGI [20]: > 100 µM; TGI [21]: > 100 µM; TGI [22]: > 100 µM; TGI [23]: > 100 µM; TGI [24]: > 100 µM; TGI [25]: > 100 µM; TGI [26]: > 100 µM; TGI [27]: > 100 µM; TGI [29]: > 100 µM; TGI [30]: > 100 µM; TGI [31]: > 100 µM; TGI [32]: > 100 µM; TGI [33]: > 100 µM; TGI [34]: > 100 µM; TGI [35]: > 100 µM; TGI [36]: > 100 µM; TGI [37]: > 100 µM; TGI [38]: > 100 µM; TGI [39]: > 100 µM; TGI [40]: > 100 µM; TGI [41]: > 100 µM; TGI [42]: > 100 µM; TGI [43]: > 100 µM; TGI [44]: > 100 µM; TGI [45]: > 100 µM; TGI [46]: > 100 µM; TGI [47]: > 100 µM; TGI [48]: > 100 µM; TGI [49]: > 100 µM; TGI [50]: > 100 µM; TGI [51]: > 100 µM; TGI [52]: > 100 µM; TGI [53]: > 100 µM; TGI [57]: > 100 µM; TGI [54]: > 100 µM; TGI [55]: > 100 µM; TGI [56]: > 100 µM
